According to PubChem BioAssay AID290 (DTP/NCI, 2004):
Where “and” joins values, the source holds several entries; their conditions need not be identical. Equal entries are not always repeated. Records with an inconclusive call do not appear. *1 amine or outer side, *2 acyl side, *3 side chain or, on linkers, in order; H or OH if unused. Where a SMILES comes first, the peptide text is derived from it. Bridges are numbered along the chain shown (N, C = ends). Roman numbers before positions name the chains, in order. [ ]: non-standard residue; d: D form. Actinocin(9to1) = Cc1c2oc3c(C)ccc(C(=O)[*:1])c3nc-2c(C(=O)[*:2])c(N)c1=O; aThr = C[C@H](O)[C@H](N)C(=O)O; NMeV = CN[C@H](C(=O)O)C(C)C; Sar = CNCC(=O)O

Tested on: mice, P1798 lymphosarcoma sc, survival or tumor weight T/C
Assay: NCI In Vivo Anticancer Drug Screen. Data for tumor model P1798 Lymphosarcoma (subcutaneous) in unknown mice
Details: endpoint: mean tumor weight, higher = larger tumour
Method: The antitumor activity of compounds was measured in mice bearing transplantable tumors. Survival or tumor size were measured and the results are expressed as the measurement made in the treated group (T) divided by the measurement made in the vehicle treated control group (C). The tumor model used in this assay is P1798 Lymphosarcoma (subcutaneous) in unknown mice

[1] = dose: 125.0 mg/kg/injection, schedule: Q01DX010 (ip), vehicle: saline
[2] = dose: 250.0 mg/kg/injection, schedule: Q01DX010 (ip), vehicle: saline
[3] = dose: 500.0 mg/kg/injection, schedule: Q01DX010 (ip), vehicle: saline
[4] = dose: 5.0 mg/kg/injection, schedule: Q01DX010 (ip), vehicle: saline
[5] = dose: 8.0 mg/kg/injection, schedule: Q01DX010 (ip), vehicle: saline
[6] = dose: 0.5 mg/kg/injection, schedule: Q01DX010 (ip), vehicle: saline
[7] = dose: 1.25 mg/kg/injection, schedule: Q01DX010 (ip), vehicle: saline

In the case of Cc1c2oc3c(C)ccc(C(=O)N[C@@H]4C(=O)N[C@H](C(C)C)C(=O)N5CCC[C@H]5C(=O)N(C)CC(=O)N(C)[C@@H](C(C)C)C(=O)O[C@H]4C)c3nc-2c(C(=O)N[C@@H]2C(=O)N[C@H](C(C)C)C(=O)N3CCC[C@H]3C(=O)N(C)CC(=O)N(C)[C@@H](C(C)C)C(=O)O[C@H]2C)c(N)c1=O (I: [aThr][dV]P[Sar][NMeV] / II: [aThr][dV]P[Sar][NMeV]; ester I:1-I:C, II:1-II:C; linker I:N-II:N via Actinocin(9to1)), the T/C (dose: 2.0 micrograms/kg/injection, schedule: Q01DX010 (ip), vehicle: saline) was 117 % of control and the T/C (dose: 20.0 micrograms/kg/injection, schedule: Q01DX010 (ip), vehicle: saline) was 46 % of control.
For CCNc1nncs1, the T/C (dose: 18.0 mg/kg/injection, schedule: Q01DX010 (ip), vehicle: carboxymethylcellulose (CMC)) was 93 % of control and the T/C (dose: 37.0 mg/kg/injection, schedule: Q01DX010 (ip), vehicle: carboxymethylcellulose (CMC)) was 67 % of control.
In the case of COc1ccc(-c2c(CC(=O)O)c3cc(OC)ccc3n2Cc2ccc(Cl)cc2)cc1, the T/C [1] was 105 % of control, the T/C [2] was 108 % of control and the T/C [3] was 112 % of control. For the same compound, the T/C (dose: 1000.0 mg/kg/injection, schedule: Q01DX010 (ip), vehicle: saline) was 110 % of control.
For CCC1=C(c2cc(Cl)c3ccccc3c2OCC(=O)O)OC(CC)(C(=O)c2cc(Cl)c3ccccc3c2OCC(=O)O)CC1 (configuration not stated), the T/C (dose: 30.0 mg/kg/injection, schedule: Q01DX010 (ip), vehicle: steriod suspending solution) was 94 % of control, the T/C (dose: 60.0 mg/kg/injection, schedule: Q01DX010 (ip), vehicle: steriod suspending solution) was 112 % of control and the T/C (dose: 120.0 mg/kg/injection, schedule: Q01DX010 (ip), vehicle: steriod suspending solution) was 65 % of control. The T/C (dose: 240.0 mg/kg/injection, schedule: Q01DX010 (ip), vehicle: steriod suspending solution) was 85 % of control.
With c1ccc(COCC[P+](c2ccccc2)(c2ccccc2)c2ccccc2)cc1 the T/C [4] was 53 % of control and the T/C [5] was 49 % of control.
For NC(Cc1ccc(N(CCCl)CCCl)cc1)C(=O)O (configuration not stated), the T/C [6] was 86 % of control, the T/C (dose: 0.63 mg/kg/injection, schedule: Q01DX010 (ip), vehicle: carboxymethylcellulose (CMC)) was 117 % of control and the T/C (dose: 1.0 mg/kg/injection, schedule: Q01DX010 (ip), vehicle: saline) was 67 % of control. The T/C (dose: 1.25 mg/kg/injection, schedule: Q01DX010 (ip), vehicle: carboxymethylcellulose (CMC)) was 110 % of control, the T/C [7] was 89 % of control and the T/C (dose: 2.0 mg/kg/injection, schedule: Q01DX010 (ip), vehicle: saline) was 77 % of control. For the same compound, the T/C (dose: 4.0 mg/kg/injection, schedule: Q01DX010 (ip), vehicle: saline) was 60 % of control, the T/C (dose: 5.0 mg/kg/injection, schedule: Q01DX010 (ip), vehicle: carboxymethylcellulose (CMC)) was 40 % of control and the T/C [4] was 36 % of control. For the same compound, the T/C (dose: 10.0 mg/kg/injection, schedule: Q01DX010 (ip), vehicle: saline) was 5 % of control.
In the case of O=c1cnn(C2OC(CO)C(O)C2O)c(=O)[nH]1 (configuration not stated), the T/C (dose: 125.0 mg/kg/injection, schedule: Q01DX010 (ip), vehicle: water) was 93 % of control, the T/C (dose: 250.0 mg/kg/injection, schedule: Q01DX010 (ip), vehicle: water) was 67 % of control and the T/C (dose: 500.0 mg/kg/injection, schedule: Q01DX010 (ip), vehicle: water) was 77 % of control. For the same compound, the T/C (dose: 1000.0 mg/kg/injection, schedule: Q01DX010 (ip), vehicle: water) was 75 % of control.
CCN(CC)CCNc1ccc(C)c2sc3ccccc3c(=O)c12 was tested, and the T/C (dose: 3.1 mg/kg/injection, schedule: Q01DX010 (ip), vehicle: methylcellulose (MC)) was 108 % of control, the T/C (dose: 5.0 mg/kg/injection, schedule: Q01DX010 (ip), vehicle: methylcellulose (MC)) was 99 % of control and the T/C (dose: 10.0 mg/kg/injection, schedule: Q01DX010 (ip), vehicle: methylcellulose (MC)) was 68 % of control. The T/C (dose: 20.0 mg/kg/injection, schedule: Q01DX010 (ip), vehicle: methylcellulose (MC)) was 104 % of control.
O=C(Nc1ccc(C2=NCCN2)cc1)c1ccc(C(=O)Nc2ccc(C3=NCCN3)cc2)cc1 was tested, and the T/C [5] was 67 % of control, the T/C (dose: 16.0 mg/kg/injection, schedule: Q01DX010 (ip), vehicle: saline) was 65 % of control and the T/C (dose: 32.0 mg/kg/injection, schedule: Q01DX010 (ip), vehicle: saline) was 109 % of control. For the same compound, the T/C (dose: 64.0 mg/kg/injection, schedule: Q01DX010 (ip), vehicle: saline) was 49 % of control.
In the case of NC(=O)N(CCCl)N=O, the T/C (dose: 1.0 mg/kg/injection, schedule: Q01DX010 (ip), vehicle: carboxymethylcellulose (CMC)) was 104 % of control, the T/C (dose: 2.0 mg/kg/injection, schedule: Q01DX010 (ip), vehicle: carboxymethylcellulose (CMC)) was 115 % of control and the T/C (dose: 4.0 mg/kg/injection, schedule: Q01DX010 (ip), vehicle: carboxymethylcellulose (CMC)) was 116 % of control. For the same compound, the T/C (dose: 8.0 mg/kg/injection, schedule: Q01DX010 (ip), vehicle: carboxymethylcellulose (CMC)) was 61 % of control.
With N=C(N)c1ccc(Nc2ccc(C(=N)N)cc2)cc1 the T/C (dose: 3.0 mg/kg/injection, schedule: Q01DX010 (ip), vehicle: saline) was 105 % of control, the T/C (dose: 6.0 mg/kg/injection, schedule: Q01DX010 (ip), vehicle: saline) was 117 % of control and the T/C (dose: 6.25 mg/kg/injection, schedule: Q01DX010 (ip), vehicle: methylcellulose (MC)) was 66 % of control. For the same compound, the T/C (dose: 12.0 mg/kg/injection, schedule: Q01DX010 (ip), vehicle: saline) was 77 % of control and the T/C (dose: 12.5 mg/kg/injection, schedule: Q01DX010 (ip), vehicle: methylcellulose (MC)) was 77 % of control.
For [I][Hg][CH2]C1COC([CH2][Hg][I])CO1 (configuration not stated), the T/C (dose: 1.8 mg/kg/injection, schedule: Q01DX010 (ip), vehicle: carboxymethylcellulose (CMC)) was 64 % of control, the T/C (dose: 3.75 mg/kg/injection, schedule: Q01DX010 (ip), vehicle: carboxymethylcellulose (CMC)) was 85 % of control and the T/C (dose: 7.5 mg/kg/injection, schedule: Q01DX010 (ip), vehicle: carboxymethylcellulose (CMC)) was 81 % of control. The T/C (dose: 30.0 mg/kg/injection, schedule: Q01DX010 (ip), vehicle: carboxymethylcellulose (CMC)) was 65 % of control.
For O=C(Nc1ccc(C2=NCCN2)cc1)c1ccc(C(=O)Nc2ccc(C3=NCCN3)cc2)c(Cl)c1, the T/C (dose: 12.5 mg/kg/injection, schedule: Q01DX010 (ip), vehicle: water) was 70 % of control, the T/C (dose: 14.0 mg/kg/injection, schedule: Q01DX011 (ip), vehicle: carboxymethylcellulose (CMC)) was 7 % of control and the T/C (dose: 28.0 mg/kg/injection, schedule: Q01DX001 (ip), vehicle: carboxymethylcellulose (CMC)) was 80 % of control. The T/C (dose: 55.0 mg/kg/injection, schedule: Q01DX001 (ip), vehicle: carboxymethylcellulose (CMC)) was 33 % of control.
For C[C@]12CCC(=O)C=C1CC[C@@H]1[C@@H]2C(=O)C[C@@]2(C)[C@H]1CC[C@]2(O)C(=O)CO, the T/C (dose: 100.0 mg/kg/injection, schedule: Q01DX010 (sc), vehicle: steriod suspending solution) was 7 % of control and the T/C (dose: 200.0 mg/kg/injection, schedule: Q01DX010 (sc), vehicle: steriod suspending solution) was 1 % of control.
For COc1cc2c(c(OC)c1OC)-c1ccc(OC)c(=O)cc1[C@@H](NC(C)=O)CC2, the T/C (dose: 0.12 mg/kg/injection, schedule: Q01DX010 (ip), vehicle: saline) was 50 % of control, the T/C (dose: 0.25 mg/kg/injection, schedule: Q01DX010 (ip), vehicle: saline) was 59 % of control and the T/C [6] was 5 % of control.
With C[C@H](N)C(=O)N[C@@H]1[C@H]2C(=C(O)C[C@@H](O)[C@@H]2O)C(=O)O[C@@H]1C the T/C [1] was 61 % of control, the T/C [2] was 84 % of control and the T/C [3] was 64 % of control.
With N=[N+]=CC(=O)OCC(N)C(=O)O (configuration not stated) the T/C [7] was 98 % of control, the T/C (dose: 2.5 mg/kg/injection, schedule: Q01DX010 (ip), vehicle: saline) was 56 % of control and the T/C [4] was 17 % of control and 24 % of control.
For CC1(O)CCC2C3CCC4=CC(=O)CCC4C3CCC21C (configuration not stated), the T/C (dose: 75.0 mg/kg/injection, schedule: Q01DX010 (sc), vehicle: steriod suspending solution) was 116 % of control, the T/C (dose: 150.0 mg/kg/injection, schedule: Q01DX010 (sc), vehicle: steriod suspending solution) was 115 % of control and the T/C (dose: 300.0 mg/kg/injection, schedule: Q01DX010 (sc), vehicle: steriod suspending solution) was 109 % of control. The T/C (dose: 600.0 mg/kg/injection, schedule: Q01DX010 (sc), vehicle: steriod suspending solution) was 122 % of control.
CN(N=O)C(N)=O was tested, and the T/C (dose: 12.5 mg/kg/injection, schedule: Q01DX010 (ip), vehicle: saline) was 10 % of control and the T/C (dose: 25.0 mg/kg/injection, schedule: Q01DX010 (ip), vehicle: saline) was 13 % of control.
With C[C@]12C=CC(=O)C=C1CC[C@@H]1[C@@H]2[C@@H](O)C[C@@]2(C)[C@H]1CC[C@]2(O)C(=O)CO the T/C (dose: 31.3 mg/kg/injection, schedule: Q01DX010 (sc), vehicle: steriod suspending solution) was 22 % of control and the T/C (dose: 62.5 mg/kg/injection, schedule: Q01DX010 (sc), vehicle: steriod suspending solution) was 8 % of control.
